Data on 16 molecules can be found in US9795140B2, “Molecules having pesticidal utility, and intermediates, compositions, and processes, related thereto” (priority 2015, dated 2017).

Common to all, as to format: in vivo
The test system of data set [1] is Beet Armyworm (Spodoptera exigua, LAPHEG). Nature of the data set: Bioassay on Beet Armyworm (BAW), 128-well diet tray assay. To be noted: 168 h, 50 μg/cm^2 on artificial diet, second instar larvae, 25° C., five to seven days, average of eight wells, read-out: BAW % Control (or Mortality) rating. In outline: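 Diet tray, 8 wells/compound; 50 μg/cm^2 applied to diet surface (90:10 acetone-water), dried. 1–5 L2 larvae/well; 25° C., 14:10 L:D, 5–7 d. Read-out: % mortality, mean of 8 wells.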

Data set [2] has as its system Cabbage Looper (Trichoplusia ni, TRIPNI). In words: Bioassay on Cabbage Looper (CL), 128-well diet tray assay. Conditions: 168 h, 50 μg/cm^2 on artificial diet, second instar larvae, 25° C., five to seven days, average of eight wells, read-out: CL % Control (or Mortality) rating. In outline: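 Percent larval mortality, averaged across eight replicate wells, was scored after 5–7 days at 25 °C with a 14:10 photoperiod. Each well held 1 mL diet surface-treated at 50 μg/cm^2 with test molecule from a 90:10 acetone-water solution, then dried. Wells were infested with one to five second-instar cabbage loopers.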

Data set [3] relates to Green Peach Aphid (Myzus persicae, MYZUPE). In words: Bioassay on Green Peach Aphid (GPA), foliar spray on cabbage seedlings. Conditions: 72 h, 200 ppm spray on infested cabbage seedlings, three days, Abbott corrected % control, read-out: GPA % Control (or Mortality) rating. As to the method:
Certain molecules disclosed in this document were tested against GPA using procedures described in the following example. In the reporting of the results, the “GPA & YFM Rating Table” was used (See Table Section).
Cabbage seedlings grown in 3-inch pots, with 2-3 small (3-5 cm) true leaves, were used as test substrate. The seedlings were infested with 20-50 GPA (wingless adult and nymph stages) one day prior to chemical application. Four pots with individual seedlings were used for each treatment. Test molecules (2 mg) were dissolved in 2 mL of acetone/methanol (1:1) solvent, forming stock solutions of 1000 ppm test molecule. The stock solutions were diluted 5× with 0.025% Tween 20 in water to obtain the solution at 200 ppm test molecule. A hand-held aspirator-type sprayer was used for spraying a solution to both sides of […] leaves until runoff. Reference plants (solvent check) were sprayed with the diluent only containing 20% by volume of acetone/methanol (1:1) solvent. Treated plants were held in a holding room for three days at approximately 25° C. and ambient relative humidity (RH) prior to grading. Evaluation was conducted by counting the number of live aphids per plant under a microscope. Percent control was measured using Abbott's correction formula (W. S. Abbott, “A Method of Computing the Effectiveness of an Insecticide” J. Econ. Entomol. 18 (1925), pp. 265-267) as follows. Corrected % Control=100*(X−Y)/X where X=No. of live aphids on solvent check plants and Y=No. of live aphids on treated plants. The results are indicated in the table entitled “Table ABC: Biological Results” (See Table Section).

In data set [4] the test system is Yellow Fever Mosquito (Aedes aegypti, AEDSAE). Nature of the data set: Bioassay on Yellow Fever Mosquito (YFM) larvae, 96-well plate. Conditions: about 1 day-old larvae, room temperature, 3 days, scored on mortality. In outline: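 Aedes aegypti larvae (about 1 day old) in liver-powder water were added to plates dispensed from DMSO master plates (4000 ppm stock) diluted with 90:10 water/acetone; six replicate plates per master. Lidded plates were held at room temperature for 3 days, then each well was scored for mortality.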

A word on the mortality: it is the share of the test organisms that died. With `C=CCONC(=O)c1cc(NC(=O)[C@H]2[C@H](c3ccc(Cl)c(Cl)c3)C2(Cl)Cl)ccc1Cl` (relative stereo) [F14, trans-N-(Allyloxy)-2-chloro-5-(2,2-dichloro-3-(3,4-dichlorophenyl)cyclopropane-1-carboxamido)benzamide], the mortality at 50 µg/cm2 in data set [1] and in data set [2] was 50 to 100% in each case. The mortality at 200 ppm in data set [3] was in the range of 0 to 80%. Moreover, the “YFM % Control (or Mortality) rating” value in data set [4] is reported as “A (80-100)”.

As to `O=C(NCc1ccccc1)c1cc(NC(=O)[C@H]2[C@H](c3cc(Cl)cc(Cl)c3)C2(Cl)Cl)ccc1Cl` (relative stereo) [F27, trans-N-benzyl-2-chloro-5-(2,2-dichloro-3-(3,5-dichlorophenyl)cyclopropane-1-carboxamido)benzamide], the mortality at 50 µg/cm2 in data set [1] and in data set [2] was 50 to 100% throughout. Moreover, the mortality at 200 ppm in data set [3] fell in the range of 0 to 80%. Further, in data set [4], the “YFM % Control (or Mortality) rating” value is “A (80-100)”.

Consider `O=C(NCc1ccc(F)cc1)c1cc(NC(=O)[C@H]2[C@H](c3cc(Cl)cc(Cl)c3)C2(Cl)Cl)ccc1Cl` (relative stereo) [F28, trans-2-Chloro-5-(2,2-dichloro-3-(3,5-dichlorophenyl)cyclopropane-1-carboxamido)-N-(4-fluorobenzyl)benzamide], for which the mortality at 50 µg/cm2 in data set [1] and in data set [2] was 50 to 100% each time. Further, in data set [3], the mortality at 200 ppm was 80 to 100%. The “YFM % Control (or Mortality) rating” value in data set [4] was “A (80-100)”.

Take `O=C(NOc1ccccc1)c1cc(NC(=O)[C@H]2[C@H](c3cc(Cl)cc(Cl)c3)C2(Cl)Cl)ccc1Cl` (relative stereo) [F29, trans-2-chloro-5-(2,2-dichloro-3-(3,5-dichlorophenyl)cyclopropane-1-carboxamido)-N-phenoxybenzamide]: the mortality at 50 µg/cm2 in data set [1] and in data set [2] was 0% each time. The mortality at 200 ppm in data set [3] is 0 to 80%. The “YFM % Control (or Mortality) rating” value in data set [4] is on record as “A (80-100)”.

As to `CC(C)CNC(=O)c1cc(NC(=O)[C@H]2[C@H](c3cc(Cl)cc(Cl)c3)C2(Cl)Cl)ccc1Cl` (relative stereo) [F30, trans-2-chloro-5-(2,2-dichloro-3-(3,5-dichlorophenyl)cyclopropane-1-carboxamido)-N-isobutylbenzamide], the mortality at 50 µg/cm2 in data set [1] and in data set [2] was 50 to 100% each time. The mortality at 200 ppm in data set [3] fell in the range of 80 to 100%. In addition, in data set [4], the “YFM % Control (or Mortality) rating” value is on record as “A (80-100)”.

In the case of `CCCCCCNC(=O)c1cc(NC(=O)[C@H]2[C@H](c3cc(Cl)cc(Cl)c3)C2(Cl)Cl)ccc1Cl` (relative stereo) [F31, trans-2-Chloro-5-(2,2-dichloro-3-(3,5-dichlorophenyl)cyclopropane-1-carboxamido)-N-hexylbenzamide], the mortality at 50 µg/cm2 in data set [1] and in data set [2] was 50 to 100% in each case. Besides, the mortality at 200 ppm in data set [3] is 0 to 80%. For the same molecule, the “YFM % Control (or Mortality) rating” value in data set [4] is “B (More than 0-Less than 80)”.

For `O=C(NCc1ccc(F)c(F)c1)c1cc(NC(=O)[C@H]2[C@H](c3cc(Cl)cc(Cl)c3)C2(Cl)Cl)ccc1Cl` (relative stereo) [F32, trans-2-Chloro-5-(2,2-dichloro-3-(3,5-dichlorophenyl)cyclopropane-1-carboxamido)-N-(3,4-difluorobenzyl)benzamide], the mortality at 50 µg/cm2 in data set [1] and in data set [2] was 50 to 100% throughout. Further, the mortality at 200 ppm in data set [3] lay within 0 to 80%. Further, the “YFM % Control (or Mortality) rating” value in data set [4] is reported as “A (80-100)”.

Consider `CCCCCNC(=O)c1cc(NC(=O)[C@H]2[C@H](c3cc(Cl)cc(Cl)c3)C2(Cl)Cl)ccc1Cl` (relative stereo) [F33, trans-2-Chloro-5-(2,2-dichloro-3-(3,5-dichlorophenyl)cyclopropane-1-carboxamido)-N-pentylbenzamide], for which the mortality at 50 µg/cm2 in data set [1] and in data set [2] was 50 to 100% in each case. Also, the mortality at 200 ppm in data set [3] lay within 0 to 80%. For the same molecule, in data set [4], the “YFM % Control (or Mortality) rating” value was “A (80-100)”.

As to `COc1ccc(CNC(=O)c2cc(NC(=O)[C@H]3[C@H](c4cc(Cl)cc(Cl)c4)C3(Cl)Cl)ccc2Cl)c(OC)c1` (relative stereo) [F34, trans-2-Chloro-5-(2,2-dichloro-3-(3,5-dichlorophenyl)cyclopropane-1-carboxamido)-N-(2,4-dimethoxybenzyl)benzamide], the mortality at 50 µg/cm2 in data set [1] and in data set [2] was 50 to 100% in each case. Also, the mortality at 200 ppm in data set [3] was determined as 0%. The “YFM % Control (or Mortality) rating” value in data set [4] is “A (80-100)”.

As for `O=C(NCC1CC1)c1cc(NC(=O)[C@H]2[C@H](c3cc(Cl)cc(Cl)c3)C2(Cl)Cl)ccc1Cl` (relative stereo) [F35, trans-2-Chloro-N-(cyclopropylmethyl)-5-(2,2-dichloro-3-(3,5-dichlorophenyl)cyclopropane-1-carboxamido)benzamide], the mortality at 50 µg/cm2 in data set [1] and in data set [2] was 50 to 100% in each case. Besides, the mortality at 200 ppm in data set [3] lay in the range of 80 to 100%. In data set [4], the “YFM % Control (or Mortality) rating” value is given as “A (80-100)”.

Consider `N#CCCNC(=O)c1cc(NC(=O)[C@H]2[C@H](c3cc(Cl)cc(Cl)c3)C2(Cl)Cl)ccc1Cl` (relative stereo) [F37, trans-2-Chloro-N-(2-cyanoethyl)-5-(2,2-dichloro-3-(3,5-dichlorophenyl)cyclopropane-1-carboxamido)benzamide], for which the mortality at 50 µg/cm2 in data set [1] and in data set [2] was 50 to 100% in each case. In data set [3], the mortality at 200 ppm lay in the range of 0 to 80%. For the same molecule, in data set [4], the “YFM % Control (or Mortality) rating” value is “A (80-100)”.

For the molecule `N#CCCCNC(=O)c1cc(NC(=O)[C@H]2[C@H](c3cc(Cl)cc(Cl)c3)C2(Cl)Cl)ccc1Cl` (relative stereo) [F38, trans-2-Chloro-N-(3-cyanopropyl)-5-(2,2-dichloro-3-(3,5-dichlorophenyl)cyclopropane-1-carboxamido)benzamide], the mortality at 50 µg/cm2 in data set [1] and in data set [2] was 50 to 100% each time. For the same molecule, the mortality at 200 ppm in data set [3] lay within 80 to 100%. The “YFM % Control (or Mortality) rating” value in data set [4] is recorded as “A (80-100)”.

Consider `O=C(NCCCOCC(F)(F)F)c1cc(NC(=O)[C@H]2[C@H](c3cc(Cl)cc(Cl)c3)C2(Cl)Cl)ccc1Cl` (relative stereo) [F39, trans-2-Chloro-5-(2,2-dichloro-3-(3,5-dichlorophenyl)cyclopropane-1-carboxamido)-N-(3-(2,2,2-trifluoroethoxy)propyl)benzamide], for which the mortality at 50 µg/cm2 in data set [1] and in data set [2] was 50 to 100% each time. Further, the mortality at 200 ppm in data set [3] lay in the range of 80 to 100%. Further, in data set [4], the “YFM % Control (or Mortality) rating” value is given as “A (80-100)”.

Turning to `O=C(NCCC(F)(F)F)c1cc(NC(=O)[C@H]2[C@H](c3cc(Cl)cc(Cl)c3)C2(Cl)Cl)ccc1Cl` (relative stereo) [F40, trans-2-Chloro-5-(2,2-dichloro-3-(3,5-dichlorophenyl)cyclopropane-1-carboxamido)-N-(3,3,3-trifluoropropyl)benzamide], the mortality at 50 µg/cm2 in data set [1] and in data set [2] was 50 to 100% each time. Moreover, in data set [3], the mortality at 200 ppm lay within 80 to 100%. Further, in data set [4], the “YFM % Control (or Mortality) rating” value is “A (80-100)”.

On to `O=C(NCc1ccc(C(F)(F)F)cc1)c1cc(NC(=O)[C@H]2[C@H](c3cc(Cl)cc(Cl)c3)C2(Cl)Cl)ccc1Cl` (relative stereo) [F41, trans-2-Chloro-5-(2,2-dichloro-3-(3,5-dichlorophenyl)cyclopropane-1-carboxamido)-N-(4-(trifluoromethyl)benzyl)benzamide], for which the mortality at 50 µg/cm2 in data set [1] and in data set [2] was 50 to 100% throughout. For the same molecule, in data set [3], the mortality at 200 ppm is 0%. Besides, the “YFM % Control (or Mortality) rating” value in data set [4] is “A (80-100)”.

Take `CC(C)(CS(C)(=O)=O)NC(=O)c1cc(NC(=O)[C@H]2[C@H](c3cc(Cl)cc(Cl)c3)C2(Cl)Cl)ccc1Cl` (relative stereo) [F42, trans-2-Chloro-5-(2,2-dichloro-3-(3,5-dichlorophenyl)cyclopropane-1-carboxamido)-N-(2-methyl-1-(methylsulfonyl)propan-2-yl)benzamide]: the mortality at 50 µg/cm2 in data set [1] and in data set [2] was 50 to 100% throughout. Besides, the mortality at 200 ppm in data set [3] fell in the range of 0 to 80%. The “YFM % Control (or Mortality) rating” value in data set [4] was “A (80-100)”.
